Experimental data as given in patent US8202879B2, “Quinazoline derivatives having tyrosine kinase inhibitory activity” (Shionogi & Co., Ltd., priority 2005, dated 2012).
Like-named read-outs stand apart in the source and are kept apart here.

Legend:
EGFR = molecular target: T1, EGFR (Homo sapiens, UniProt P00533); test: Enzyme inhibitory activity on EGFR (time resolution fluorescence, biotinylated poly-Glu-Tyr substrate); assay type: biochemical
T1 construct: purchased Carna Biosciences, Inc; host or cells: insect cell expression system
Protocol: (§1) Enzyme Inhibitory Activity of Test Compound on EGFR and HER2
(§2) EGFR and HER2 purified from an insect cell expression system, and a biotinylated substrate (synthetic peptide of glutamic acid:tyrosine=4:1) were added to a 384-well plate with ATP added thereto, and an enzyme reaction was performed at room temperature. After completion of the enzyme reaction, an anti-phosphorylated tyrosine antibody labeled with europium and streptavidin labeled with alphycocyanine were added, and a phosphorylated tyrosine residue was quantified by a time resolution fluorescence method.
(§3) A test compound was adjusted to 10 mM using DMSO.
(§4) Further, using 10% DMSO solution, a 1 mM solution was prepared, and this was regarded as a maximum concentration point.
(§5) As a dilution series, a 4-fold dilution series was prepared to a 10 stage.
(§6) As a buffer, TBS containing 10 mM MgCl2, 5 mM MnCl2, 0.2 mM Na3VO4, and 0.1% BSA was used.
(§7) As EGFR and HER2 enzymes, those purified from an insect cell expression system were purchased from Carna Biosciences, Inc.
An EGFR enzyme solution was adjusted to 250 ng/ml using a buffer.
(§8) As a substrate, biotinylated poly-Glu-Tyr (4:1, manufactured by CISbio) was used. A concentration was adjusted to 3.125 μg/ml using the above buffer.
An ATP concentration on study of the EGFR enzyme was adjusted to 125 μM using the buffer.
(§9) For preparing a detection reagent, TBS containing 30 mM EDTA, 0.8M KF and 0.1% BSA was used.
(§10) An anti-phosphorylated tyrosine antibody labeled with europium, PT-66K (CISbio) was adjusted to 195 ng/ml, and streptavidin labeled with alphycocyanine, SA-XL (CISbio) was adjusted to 5 μg/ml.
(§11) As an assay plate, a 384-well plate was used. Per one well, 1.1 μl of a test compound, 4 μl of a substrate solution, and 4 μl of an enzyme solution were added, and 2 μl of an ATP solution was added to initiate an enzyme reaction. The enzyme reaction was performed at room temperature for 60 minutes, and 10 μl of a detection reagent was added to complete the reaction. One hour after completion of the reaction, time resolution fluorescent measurement was performed.

HER2 = molecular target: T2, HER2 (Homo sapiens, UniProt P04626); test: Enzyme inhibitory activity on HER2 (time resolution fluorescence, biotinylated poly-Glu-Tyr substrate); assay type: biochemical
T2 construct: purchased Carna Biosciences, Inc; host or cells: insect cell expression system
Protocol: as §1, §2, §3, §4, §5, §6, §7
HER2 kinase was adjusted to 1000 ng/ml using a buffer.
as §8
An ATP concentration on study of the HER2 enzyme was adjusted to 290 μM.
as §9, §10, §11

BT-474 = test: In vitro cell proliferation inhibition, WST assay; assay type: cell-based, human; settings: BT-474 cells, cultured for 3 days, read-out: BT-474 (nM) proliferation inhibitory activity (IC50 value)
Protocol: Test of In Vitro Cell Proliferation Inhibition of Test Compound
As a human-derived cancer cell strain, BT-474 was used. Cells were all cultured in a 37° C., 5% CO2 incubator in a medium in which 10% bovine fetal serum (ICN) and 50 units ml penicillin/60 μg/ml streptomycin solution (GIBCO) were added to Dulbecco's Modified Essential Medium (DMEM, Nacalai Tesque, Inc).

[1] = EGFR purified from insect cell expression system, ATP solution 125 μM, room temperature, 60 minutes
[2] = HER2 purified from insect cell expression system, ATP solution 290 μM, room temperature, 60 minutes
[3] = enzyme reaction at room temperature for 60 minutes

T1 sequence (P00533 25-1210): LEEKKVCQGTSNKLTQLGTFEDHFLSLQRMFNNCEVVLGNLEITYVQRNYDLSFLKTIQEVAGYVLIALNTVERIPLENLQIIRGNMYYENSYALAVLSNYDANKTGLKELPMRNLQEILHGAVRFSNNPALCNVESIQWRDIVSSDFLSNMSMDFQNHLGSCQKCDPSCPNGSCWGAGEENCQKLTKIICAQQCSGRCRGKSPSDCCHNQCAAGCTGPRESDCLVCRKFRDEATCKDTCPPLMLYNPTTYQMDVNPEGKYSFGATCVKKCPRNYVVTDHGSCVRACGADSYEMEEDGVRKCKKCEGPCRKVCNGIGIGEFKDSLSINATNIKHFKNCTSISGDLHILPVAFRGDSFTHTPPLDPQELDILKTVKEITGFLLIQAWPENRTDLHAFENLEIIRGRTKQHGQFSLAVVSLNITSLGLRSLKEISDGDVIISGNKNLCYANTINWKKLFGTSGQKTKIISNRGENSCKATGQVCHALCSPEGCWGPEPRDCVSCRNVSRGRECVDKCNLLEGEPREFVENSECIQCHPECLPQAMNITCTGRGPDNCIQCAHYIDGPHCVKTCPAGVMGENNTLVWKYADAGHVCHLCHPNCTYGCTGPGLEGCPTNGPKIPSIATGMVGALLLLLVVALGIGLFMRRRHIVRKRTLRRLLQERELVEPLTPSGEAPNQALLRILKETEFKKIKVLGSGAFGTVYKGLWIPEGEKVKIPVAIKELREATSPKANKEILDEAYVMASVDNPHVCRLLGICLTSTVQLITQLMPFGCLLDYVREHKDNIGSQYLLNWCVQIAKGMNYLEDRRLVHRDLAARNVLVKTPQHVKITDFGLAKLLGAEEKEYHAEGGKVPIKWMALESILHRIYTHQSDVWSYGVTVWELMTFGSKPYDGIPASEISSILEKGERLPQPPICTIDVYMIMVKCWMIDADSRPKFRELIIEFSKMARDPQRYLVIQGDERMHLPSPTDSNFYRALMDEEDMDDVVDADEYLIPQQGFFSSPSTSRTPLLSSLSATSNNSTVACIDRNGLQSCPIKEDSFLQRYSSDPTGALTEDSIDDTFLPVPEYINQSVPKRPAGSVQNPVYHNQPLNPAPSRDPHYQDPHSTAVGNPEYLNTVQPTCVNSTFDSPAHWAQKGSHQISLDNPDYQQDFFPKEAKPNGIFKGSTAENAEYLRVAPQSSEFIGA
T2 sequence (P04626 23-1255): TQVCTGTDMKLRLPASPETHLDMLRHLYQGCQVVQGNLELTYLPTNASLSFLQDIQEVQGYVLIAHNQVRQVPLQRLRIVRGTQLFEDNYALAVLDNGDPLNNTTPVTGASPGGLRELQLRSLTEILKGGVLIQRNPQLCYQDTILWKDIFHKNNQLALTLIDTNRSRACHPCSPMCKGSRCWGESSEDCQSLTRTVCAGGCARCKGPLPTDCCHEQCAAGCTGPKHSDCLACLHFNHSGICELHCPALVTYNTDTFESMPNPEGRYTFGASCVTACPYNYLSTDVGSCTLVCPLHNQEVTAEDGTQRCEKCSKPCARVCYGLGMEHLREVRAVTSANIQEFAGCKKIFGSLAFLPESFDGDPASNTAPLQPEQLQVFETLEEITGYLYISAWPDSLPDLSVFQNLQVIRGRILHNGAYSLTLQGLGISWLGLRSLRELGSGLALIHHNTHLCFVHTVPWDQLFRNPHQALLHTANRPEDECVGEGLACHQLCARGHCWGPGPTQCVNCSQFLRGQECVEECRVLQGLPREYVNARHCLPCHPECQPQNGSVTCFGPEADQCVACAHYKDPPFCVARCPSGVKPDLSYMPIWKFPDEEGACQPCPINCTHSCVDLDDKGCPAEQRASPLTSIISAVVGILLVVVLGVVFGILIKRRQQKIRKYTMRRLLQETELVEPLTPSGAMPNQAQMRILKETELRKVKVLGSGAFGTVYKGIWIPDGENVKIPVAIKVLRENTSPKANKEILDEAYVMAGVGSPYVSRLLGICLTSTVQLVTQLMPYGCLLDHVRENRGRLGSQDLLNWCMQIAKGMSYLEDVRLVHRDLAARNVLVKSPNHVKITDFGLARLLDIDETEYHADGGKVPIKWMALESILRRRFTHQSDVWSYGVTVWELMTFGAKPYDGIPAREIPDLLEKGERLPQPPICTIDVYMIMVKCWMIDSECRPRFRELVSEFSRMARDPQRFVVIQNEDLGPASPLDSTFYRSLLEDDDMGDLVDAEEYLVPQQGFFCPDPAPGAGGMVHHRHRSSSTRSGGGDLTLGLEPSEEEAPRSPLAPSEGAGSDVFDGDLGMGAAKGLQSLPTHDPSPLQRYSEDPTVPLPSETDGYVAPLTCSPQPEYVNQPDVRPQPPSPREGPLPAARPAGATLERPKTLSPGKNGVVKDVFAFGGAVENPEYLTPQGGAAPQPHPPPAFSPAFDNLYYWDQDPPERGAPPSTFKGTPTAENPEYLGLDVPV

| Structure (SMILES) | IC50 (EGFR; [1]) | IC50 (HER2; [2]) | IC50 (BT-474; Homo sapiens, BT-474, 72 h) | IC50 (BT-474) | IC50 (EGFR; [3]) | IC50 (HER2; [3]) |
| --- | --- | --- | --- | --- | --- | --- |
| CC#C/C(=N\OC[C@H]1CCCN1CC#N)c1ccc2ncnc(Nc3ccc(OCc4cccc(F)c4)c(Cl)c3)c2c1 [VIII-86] | 244 nM | 304 nM | 13 nM | – | – | – |
| CC#C/C(=N\OC[C@@H]1CCCN1CC(=O)O)c1ccc2ncnc(Nc3ccc(OCc4cccc(F)c4)c(Cl)c3)c2c1 [VIII-89] | 27 nM | 24 nM | 25 nM | – | – | – |
| CC#C/C(=N\OC[C@H]1CCCN1C)c1ccc2ncnc(Nc3ccc(OCc4cccc(F)c4)c(Cl)c3)c2c1 [VIII-91] | 74 nM | 83 nM | – | 24 nM | – | – |
| CC#C/C(=N\O[C@H]1CN[C@H](CO)C1)c1ccc2ncnc(Nc3ccc(OCc4cccc(F)c4)c(Cl)c3)c2c1 [VIII-92] | 32 nM | 36 nM | – | 29 nM | – | – |
| CC#C/C(=N\OCCN1C[C@@H](C)O[C@@H](C)C1)c1ccc2ncnc(Nc3ccc(OCc4cccc(F)c4)c(Cl)c3)c2c1 [VIII-93] | 453 nM | 321 nM | 38 nM | – | – | – |
| CC#C/C(=N\OCCN1CCN(C)CC1)c1ccc2ncnc(Nc3ccc(OCc4cccc(F)c4)c(Cl)c3)c2c1 [VIII-96] | 20 nM | 20 nM | – | 30 nM | – | – |
| CC#C/C(=N\OCCN1CCC(O)CC1)c1ccc2ncnc(Nc3ccc(OCc4cccc(F)c4)c(Cl)c3)c2c1 [VIII-97] | 19 nM | 22 nM | – | 11 nM | – | – |
| CC#C/C(=N\OCCN1CCC(N)CC1)c1ccc2ncnc(Nc3ccc(OCc4cccc(F)c4)c(Cl)c3)c2c1 [VIII-98] | 21 nM | 21 nM | – | 65 nM | – | – |
| CC#CC(=NOCC1CNCCN1)c1ccc2ncnc(Nc3ccc(OCc4cccc(F)c4)c(Cl)c3)c2c1 (stereo not drawn) [VIII-103] | 3.9 nM | 5.6 nM | 11 nM | – | – | – |
| CC#C/C(=N\OC[C@H]1CNCCN1)c1ccc2ncnc(Nc3ccc(OCc4cccc(F)c4)c(Cl)c3)c2c1 [VIII-105] | 14 nM | 14 nM | – | 10 nM | – | – |
| CC#C/C(=N\OC[C@@H]1NCCO[C@H]1C)c1ccc2ncnc(Nc3ccc(OCc4cccc(F)c4)c(Cl)c3)c2c1 [VIII-106] | 160 nM | 148 nM | 16 nM | – | – | – |
| CC#C/C(=N\OC[C@H]1NCCO[C@@H]1C)c1ccc2ncnc(Nc3ccc(OCc4cccc(F)c4)c(Cl)c3)c2c1 [VIII-107] | 150 nM | 135 nM | – | 23 nM | – | – |
| CC#CC(=NOCC1CN(C)CCN1C)c1ccc2ncnc(Nc3ccc(OCc4cccc(F)c4)c(Cl)c3)c2c1 (stereo not drawn) [VIII-108] | 53 nM | 56 nM | 31 nM | – | – | – |
| CC#C/C(=N\OC[C@H]1CNCCO1)c1ccc2ncnc(Nc3ccc(OCc4cccc(F)c4)c(Cl)c3)c2c1 [VIII-114] | 57 nM | 69 nM | – | 37 nM | – | – |
| CC#C/C(=N\OC[C@H]1CNC[C@@H](C)O1)c1ccc2ncnc(Nc3ccc(OCc4cccc(F)c4)c(Cl)c3)c2c1 [VIII-116] | 37 nM | 25 nM | – | 50 nM | – | – |
| CC#C/C(=N\OC[C@@H]1CNCC(=O)N1)c1ccc2ncnc(Nc3ccc(OCc4cccc(F)c4)c(Cl)c3)c2c1 [VIII-119] | 81 nM | 77 nM | – | 31 nM | – | – |
| CNCCO/N=C(\C#CCO)c1ccc2ncnc(Nc3ccc(OCc4cccc(F)c4)c(Cl)c3)c2c1 [VIII-121] | 17 nM | 18 nM | – | 10 nM | – | – |
| OCC#C/C(=N\OCCN1CCCC1)c1ccc2ncnc(Nc3ccc(OCc4cccc(F)c4)c(Cl)c3)c2c1 [VIII-122] | 29 nM | 24 nM | 14 nM | – | – | – |
| CNCCO/N=C(\C#CCOC)c1ccc2ncnc(Nc3ccc(OCc4cccc(F)c4)c(Cl)c3)c2c1 [VIII-123] | – | – | – | 31 nM | 24 nM | 38 nM |

Further compounds by falling IC50 (EGFR; [1]), results first:

| IC50 (EGFR; [1]) | IC50 (HER2; [2]) | IC50 (BT-474; Homo sapiens, BT-474, 72 h) | IC50 (BT-474) | IC50 (EGFR; [3]) | IC50 (HER2; [3]) | Structure (SMILES) |
| --- | --- | --- | --- | --- | --- | --- |
| 642 nM | 476 nM | – | 6 nM | – | – | CC#C/C(=N\OC[C@H]1CCCN1CC(=O)OC)c1ccc2ncnc(Nc3ccc(OCc4cccc(F)c4)c(Cl)c3)c2c1 [VIII-87] |
| 238 nM | 202 nM | – | 60 nM | – | – | CC#C/C(=N\OC[C@@H]1COCCN1CC#N)c1ccc2ncnc(Nc3ccc(OCc4cccc(F)c4)c(Cl)c3)c2c1 [VIII-104] |
| 213 nM | 150 nM | 26 nM | – | – | – | CC#C/C(=N\OCCN1CCNC(=O)C1)c1ccc2ncnc(Nc3ccc(OCc4cccc(F)c4)c(Cl)c3)c2c1 [VIII-94] |
| 209 nM | 176 nM | – | 25 nM | – | – | CC#C/C(=N\OCCN1CCS(=O)(=O)CC1)c1ccc2ncnc(Nc3ccc(OCc4cccc(F)c4)c(Cl)c3)c2c1 [VIII-95] |
| 208 nM | 203 nM | 16 nM | – | – | – | CC#C/C(=N\OCCN1CCC(NS(C)(=O)=O)CC1)c1ccc2ncnc(Nc3ccc(OCc4cccc(F)c4)c(Cl)c3)c2c1 [VIII-100] |
| 197 nM | 223 nM | – | 22 nM | – | – | CC#C/C(=N\OC[C@H]1CS(=O)(=O)CCN1)c1ccc2ncnc(Nc3ccc(OCc4cccc(F)c4)c(Cl)c3)c2c1 [VIII-118] |
| 93 nM | 97 nM | – | 9 nM | – | – | CC#C/C(=N\OC[C@H]1CCCN1CCO)c1ccc2ncnc(Nc3ccc(OCc4cccc(F)c4)c(Cl)c3)c2c1 [VIII-90] |
| 84 nM | 84 nM | 24 nM | – | – | – | CC#C/C(=N\OCCN1CCC(NC(C)=O)CC1)c1ccc2ncnc(Nc3ccc(OCc4cccc(F)c4)c(Cl)c3)c2c1 [VIII-99] |
| 72 nM | 121 nM | – | 7 nM | – | – | CC#C/C(=N\OC[C@H]1COCCN1)c1ccc2ncnc(Nc3ccc(OCc4cccc(F)c4)c(Cl)c3)c2c1 [VIII-102] |
| 56 nM | 129 nM | – | 12 nM | – | – | CC#C/C(=N\OC[C@@H]1COCCN1)c1ccc2ncnc(Nc3ccc(OCc4cccc(F)c4)c(Cl)c3)c2c1 [VIII-101] |
| 47 nM | 56 nM | – | 12 nM | – | – | CC#C/C(=N\OC[C@H]1CCCN1CC(=O)O)c1ccc2ncnc(Nc3ccc(OCc4cccc(F)c4)c(Cl)c3)c2c1 [VIII-88] |
| 47 nM | 53 nM | – | 20 nM | – | – | CC#C/C(=N\OC[C@H]1CNC[C@H](C)O1)c1ccc2ncnc(Nc3ccc(OCc4cccc(F)c4)c(Cl)c3)c2c1 [VIII-117] |
| 37 nM | 55 nM | – | 15 nM | – | – | CC#C/C(=N\OC[C@H]1CNCC(=O)N1)c1ccc2ncnc(Nc3ccc(OCc4cccc(F)c4)c(Cl)c3)c2c1 [VIII-111] |
| 33 nM | 29 nM | 32 nM | – | – | – | CNCCO/N=C(\C#CC1CC1)c1ccc2ncnc(Nc3ccc(OCc4cccc(F)c4)c(Cl)c3)c2c1 [VIII-120] |
| 29 nM | 35 nM | – | 21 nM | – | – | CC#C/C(=N\OC[C@@H]1CNC[C@@H](C)O1)c1ccc2ncnc(Nc3ccc(OCc4cccc(F)c4)c(Cl)c3)c2c1 [VIII-110] |
| 23 nM | 18 nM | 40 nM | – | – | – | CC#C/C(=N\OC[C@@H]1CNC[C@H](C)O1)c1ccc2ncnc(Nc3ccc(OCc4cccc(F)c4)c(Cl)c3)c2c1 [VIII-109] |
| 11 nM | 13 nM | – | 8 nM | – | – | CC#C/C(=N\OC[C@H]1CN(CCO)CCN1)c1ccc2ncnc(Nc3ccc(OCc4cccc(F)c4)c(Cl)c3)c2c1 [VIII-112] |
| 9.7 nM | 12 nM | 13 nM | – | – | – | CC#C/C(=N\OC[C@H]1CN(C)CCN1)c1ccc2ncnc(Nc3ccc(OCc4cccc(F)c4)c(Cl)c3)c2c1 [VIII-113] |
